Results: patent US5025027A, “Cyclic carbamate analogues of (+)-pilocarpine” (Regents of the University of California, priority 1989, dated 1991)
pEC50: −log10 of the molar value.

Tests used:
[1] = target: T1, muscarinic receptors (Cavia porcellus, UniProt H0W1Z3); test: Guinea pig ileum bioassay (isotonic contractions); details: for muscarinic agonist activity (in words) / pEC50 / potency compared with pilocarpine (in words): guinea pig ileum; for muscarinic agonist activity (in words) / pEC50: in vitro; for pEC50: read-out: ED50 (the source's name); for potency compared with pilocarpine (in words): relative to pilocarpine; for contractions of guinea pig ileum (FIG. 1), in words: single doses, 9, 10, 8 in increasing order of potency
T1 construct: a distal portion of guinea pig ileum was cut and a segment (1-1.5 cm) was tied at both ends; from tissue; host or cells: guinea pig distal ileum segment (isolated organ bath)
T1 sequence (H0W1Z3 1-590): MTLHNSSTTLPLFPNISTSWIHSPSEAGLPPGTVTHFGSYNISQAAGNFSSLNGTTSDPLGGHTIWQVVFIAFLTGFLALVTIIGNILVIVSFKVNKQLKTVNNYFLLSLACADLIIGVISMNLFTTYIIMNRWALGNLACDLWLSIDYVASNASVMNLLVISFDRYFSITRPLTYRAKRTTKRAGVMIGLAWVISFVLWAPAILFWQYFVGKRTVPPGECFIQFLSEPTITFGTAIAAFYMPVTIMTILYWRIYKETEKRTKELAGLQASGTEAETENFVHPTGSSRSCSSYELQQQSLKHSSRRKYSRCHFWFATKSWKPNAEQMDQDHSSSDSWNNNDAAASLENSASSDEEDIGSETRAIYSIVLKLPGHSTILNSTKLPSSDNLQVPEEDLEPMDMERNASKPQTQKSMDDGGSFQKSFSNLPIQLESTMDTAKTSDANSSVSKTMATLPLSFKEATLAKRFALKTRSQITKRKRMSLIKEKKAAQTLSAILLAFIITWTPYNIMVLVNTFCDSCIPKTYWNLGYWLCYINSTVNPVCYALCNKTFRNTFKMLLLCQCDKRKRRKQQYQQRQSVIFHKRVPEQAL
Procedure: Guinea Pig Ileum Bioassay. Briefly, a distal portion of guinea pig ileum was cut and a segment (1-1.5 cm) was tied at both ends. One end was connected to a force displacement transducer and the other end to the muscle holder in a 5 ml organ bath. […] After the tissue was allowed to equilibrate for 45-60 minutes, single doses of agonists were administered into the bath and isotonic contractions were recorded on a Grass polygraph.

[2] = cited from earlier work; for pharmacological activity (in words): products of lactone cleavage or epimerization of pilocarpine; for activity of pilocarpine analogues (in words): less active than pilocarpine
[3] = cited from earlier work

Row | SMILES | muscarinic agonist activity (in words) [1] | pEC50 [1] | potency compared with pilocarpine (in words) [1] | contractions of guinea pig ileum (FIG. 1), in words [1] | other results
1 | CCN1C(=O)OC[C@@H]1Cc1cn(Cc2ccccc2)cn1 [Compound 6, (S)-3-Ethyl-4-(1,'-benzyl-4'-imidazolyl)methyl-2-oxazolidinone] | inactive | – | – | – | –
2 | CCN1C(=O)OC[C@@H]1Cc1c[n+](Cc2ccccc2)cn1C [Compound 7] | inactive | – | – | – | –
3 | CCN1C(=O)OC[C@@H]1Cc1cncn1C [Compound 8, (S)-3-Ethyl-4-(1'-methyl-5'-imidazolyl)methyl-2-oxazolidinone] | – | 6.00 | equipotent with pilocarpine | cholinergic muscarinic agonists | log concentration-response curves (in words) ([1]; pilocarpine and 8 compared): parallel log concentration-response curves
4 | CCN1C(=O)OC[C@@H]1Cc1c[nH]cn1 [Compound 9, (S)-3-Ethyl-4-(4'-imidazolyl)methyl-2-oxazolidinone] | weaker muscarinic agonists | 3.74 | less active | cholinergic muscarinic agonists | –
5 | CCN1C(=O)OC[C@@H]1Cc1cn(C)cn1 [Compound 10, (S)-3-Ethyl-4-(1'-methyl-4'-imidazolyl)methyl-2-oxazolidinone] | weaker muscarinic agonists | 4.85 | less active | cholinergic muscarinic agonists | –
6 | CC[C@H]1C(=O)OC[C@@H]1Cc1cncn1C [isopilocarpine] | – | – | – | – | pharmacological activity (in words) [2]: essentially pharacologically inactive
7 | CC[C@@H]1C(=O)OC[C@@H]1Cc1cn(C)cn1 [neopilocarpine] | – | – | – | – | activity of pilocarpine analogues (in words) [2]: less active
8 | CC[C@H](C(=O)O)[C@H](CO)Cc1cncn1C [pilocarpic acid] | – | – | – | – | pharmacological activity (in words) [2]: essentially pharacologically inactive
9 | CC[C@@H]1C(=O)OC[C@@H]1Cc1cnc[nH]1 [pilocarpidine] | – | – | – | – | activity of pilocarpine analogues (in words) [2]: less active
10 | CC[C@@H]1C(=O)OC[C@@H]1Cc1cncn1C [pilocarpine] | – | – | – | – | duration of biological activity (in words) ([2]; due to hydrolytic cleavage of the lactone ring and/or epimerization): short duration of biological activity; side effects on administration for long periods (in words) ([3]; administered for long periods): without side effects; effect on intraocular pressure (in words) ([3]; narrow and wide angle glaucoma): decreases the intraocular pressure; duration of intraocular pressure lowering ([3]; topical miotic): about three
